Measured values taken from PubChem BioAssay AID248 (DTP/NCI, 2004).
Several values for one entry are separate records, joined by “and”; a condition that tells them apart may be missing. Identical values can stand only once. Toxic doses and inconclusive results are not listed.

Tested on: L1210 leukemia ip in BDF1 mice, survival T/C
Assay: NCI In Vivo Anticancer Drug Screen. Data for tumor model L1210 Leukemia (intraperitoneal) in B6D2F1 (BDF1) mice
Settings: endpoint: mean survival time, higher = longer survival
In short: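 In this screen, tumor-bearing mice given compound are compared to those given vehicle, and their survival values are reported as a treated-to-control quotient.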

[1] = dose: 100.0 mg/kg/injection, schedule: Q04DX002 (ip), vehicle: saline
[2] = dose: 200.0 mg/kg/injection, schedule: Q04DX002 (ip), vehicle: saline
[3] = dose: 400.0 mg/kg/injection, schedule: Q04DX002 (ip), vehicle: saline
[4] = dose: 100.0 mg/kg/injection, schedule: Q04DX002 (ip), vehicle: Klucel (hydroxypropylcellulose) (HPC)
[5] = dose: 200.0 mg/kg/injection, schedule: Q04DX002 (ip), vehicle: Klucel (hydroxypropylcellulose) (HPC)
[6] = dose: 400.0 mg/kg/injection, schedule: Q04DX002 (ip), vehicle: Klucel (hydroxypropylcellulose) (HPC)
[7] = dose: 100.0 mg/kg/injection, schedule: Q04DX003 (ip), vehicle: Klucel (hydroxypropylcellulose) (HPC)
[8] = dose: 100.0 mg/kg/injection, schedule: Q04DX003 (ip), vehicle: saline with Tween-80
[9] = dose: 200.0 mg/kg/injection, schedule: Q04DX003 (ip), vehicle: Klucel (hydroxypropylcellulose) (HPC)
[10] = dose: 200.0 mg/kg/injection, schedule: Q04DX003 (ip), vehicle: saline with Tween-80
[11] = dose: 400.0 mg/kg/injection, schedule: Q04DX003 (ip), vehicle: Klucel (hydroxypropylcellulose) (HPC)
[12] = dose: 400.0 mg/kg/injection, schedule: Q04DX003 (ip), vehicle: saline with Tween-80
[13] = dose: 100.0 mg/kg/injection, schedule: Q01DX001 (ip), vehicle: carboxymethylcellulose (CMC)
[14] = dose: 200.0 mg/kg/injection, schedule: Q01DX001 (ip), vehicle: carboxymethylcellulose (CMC)
[15] = dose: 400.0 mg/kg/injection, schedule: Q01DX001 (ip), vehicle: carboxymethylcellulose (CMC)
[16] = dose: 50.0 mg/kg/injection, schedule: Q04DX002 (ip), vehicle: saline
[17] = dose: 100.0 mg/kg/injection, schedule: Q01DX001 (ip), vehicle: saline
[18] = dose: 200.0 mg/kg/injection, schedule: Q01DX001 (ip), vehicle: saline
[19] = dose: 400.0 mg/kg/injection, schedule: Q01DX001 (ip), vehicle: saline
[20] = dose: 100.0 mg/kg/injection, schedule: Q01DX001 (ip), vehicle: Klucel (hydroxypropylcellulose) (HPC)
[21] = dose: 200.0 mg/kg/injection, schedule: Q01DX001 (ip), vehicle: Klucel (hydroxypropylcellulose) (HPC)
[22] = dose: 400.0 mg/kg/injection, schedule: Q01DX001 (ip), vehicle: Klucel (hydroxypropylcellulose) (HPC)
[23] = dose: 100.0 mg/kg/injection, schedule: Q01DX009 (ip), vehicle: Klucel (hydroxypropylcellulose) (HPC)
[24] = dose: 200.0 mg/kg/injection, schedule: Q01DX009 (ip), vehicle: Klucel (hydroxypropylcellulose) (HPC)
[25] = dose: 400.0 mg/kg/injection, schedule: Q01DX009 (ip), vehicle: Klucel (hydroxypropylcellulose) (HPC)
[26] = dose: 100.0 mg/kg/injection, schedule: Q01DX009 (ip), vehicle: saline with Tween-80
[27] = dose: 200.0 mg/kg/injection, schedule: Q01DX009 (ip), vehicle: saline with Tween-80

Nc1ncnc2c1ncn2C1OC(COC2C(CO)OC(OC(C(=O)O)C(O)C(OP(=O)(O)O)C(O)C(=O)O)C(O)C2O)C(O)C1O (centres undefined)
T/C (dose: 0.25 mg/kg/injection, schedule: Q04DX002 (ip), vehicle: saline + alcohol): 91 % of control | T/C (dose: 0.5 mg/kg/injection, schedule: Q04DX002 (ip), vehicle: saline + alcohol): 94 % of control | T/C (dose: 1.0 mg/kg/injection, schedule: Q04DX002 (ip), vehicle: saline + alcohol): 98 % of control

CCCC/C=N\NC(=S)NCCCCCCCCCCCCCCCCCC
T/C (dose: 200.0 mg/kg/injection, schedule: Q01DX Z (ip), vehicle: saline): 94 % of control | T/C (dose: 300.0 mg/kg/injection, schedule: Q01DX Z (ip), vehicle: saline): 103 % of control | T/C (dose: 450.0 mg/kg/injection, schedule: Q01DX Z (ip), vehicle: saline): 95 % of control | T/C (dose: 675.0 mg/kg/injection, schedule: Q01DX Z (ip), vehicle: saline): 90 % of control

O=c1[nH]c(=O)n(C2OC(CO)C(O)C2O)c2scnc12 (centres undefined)
T/C (dose: 100.0 mg/kg/injection, schedule: Q01DX005 (ip), vehicle: saline): 98 % of control | T/C (dose: 200.0 mg/kg/injection, schedule: Q01DX005 (ip), vehicle: saline): 100 % of control

O=C(NCCCNC(=O)Nc1ccc(C2=NCCN2)cc1)Nc1ccc(C2=NCCN2)cc1
T/C (dose: 0.5 mg/kg/injection, schedule: Q01DX Z (ip), vehicle: carboxymethylcellulose (CMC)): 105 % of control | T/C (dose: 1.0 mg/kg/injection, schedule: Q01DX Z (ip), vehicle: carboxymethylcellulose (CMC)): 105 % of control | T/C (dose: 8.0 mg/kg/injection, schedule: Q01DX Z (ip), vehicle: water): 122 % of control | T/C (dose: 12.0 mg/kg/injection, schedule: Q01DX Z (ip), vehicle: carboxymethylcellulose (CMC)): 225 % of control | T/C (dose: 16.0 mg/kg/injection, schedule: Q01DX Z (ip), vehicle: carboxymethylcellulose (CMC)): 223 % of control | T/C (dose: 16.0 mg/kg/injection, schedule: Q01DX Z (ip), vehicle: water): 210 % of control | T/C (dose: 24.0 mg/kg/injection, schedule: Q01DX Z (ip), vehicle: carboxymethylcellulose (CMC)): 223 % of control | T/C (dose: 31.0 mg/kg/injection, schedule: Q01DX Z (ip), vehicle: carboxymethylcellulose (CMC)): 177 % of control

Cc1ccc(Cl)c(I)c1
T/C [1]: 103 % of control | T/C [2]: 103 % of control | T/C [3]: 95 % of control

O=C(Nc1ccc(Cl)cc1)O/C(=C(/OC(=O)Nc1ccc(Cl)cc1)c1ccc(Cl)cc1)c1ccc(Cl)cc1
T/C [4]: 96 % of control | T/C [5]: 92 % of control | T/C [6]: 89 % of control

CC(C)OP(=O)(CCCCCCCCCCP(=O)(OC(C)C)OC(C)C)OC(C)C
T/C [1]: 113 % of control | T/C [2]: 102 % of control | T/C [3]: 98 % of control

OC(COc1ccccc1)COc1ccccc1
T/C [7]: 105 % of control | T/C [8]: 96 % of control | T/C [9]: 105 % of control | T/C [10]: 95 % of control | T/C [11]: 106 % of control | T/C [12]: 93 % of control

CN(C)c1ccc2c(c1)C(=O)c1cc(Br)ccc1-2
T/C [13]: 105 % of control | T/C [14]: 100 % of control | T/C [15]: 108 % of control

CCCC(NC(=O)CN)C(=O)O (centres undefined)
T/C [16]: 96 % of control | T/C [1]: 101 % of control | T/C [2]: 96 % of control

C=C/C=C/CC=C
T/C [17]: 107 % of control | T/C [18]: 107 % of control | T/C [19]: 109 % of control

CN(CCCN)CCCN
T/C (dose: 25.0 mg/kg/injection, schedule: Q04DX002 (ip), vehicle: saline): 115 % of control | T/C [16]: 96 % of control | T/C [1]: 100 % of control and 104 % of control

O=C(OC(C1COCO1)C(O)C1COCO1)c1ccccc1 (centres undefined)
T/C [20]: 96 % of control | T/C [21]: 105 % of control | T/C [22]: 107 % of control

Nc1ncnc(N)c1NC(=O)c1ccc(-c2ccccc2)cc1
T/C [8]: 91 % of control | T/C [12]: 86 % of control

O=[N+]([O-])c1cc(Cl)cc2c1nc(NCCCO)c1ccccc12
T/C [7]: 105 % of control | T/C [9]: 108 % of control | T/C [11]: 102 % of control

CCN(CCCl)c1ccc(N=Nc2cc(Cl)ccc2Cl)cc1
T/C [23]: 103 % of control | T/C [7]: 104 % of control | T/C [24]: 115 % of control | T/C [9]: 97 % of control | T/C [25]: 105 % of control | T/C [11]: 104 % of control

COc1cc2c(cc1OC)C1CCc3cc(OC)c(OC)cc3C1N=C2 (centres undefined)
T/C (dose: 80.0 mg/kg/injection, schedule: Q01DX009 (ip), vehicle: saline): 102 % of control | T/C (dose: 120.0 mg/kg/injection, schedule: Q01DX009 (ip), vehicle: saline): 93 % of control | T/C (dose: 240.0 mg/kg/injection, schedule: Q01DX009 (ip), vehicle: saline): 93 % of control | T/C (dose: 360.0 mg/kg/injection, schedule: Q01DX009 (ip), vehicle: saline): 93 % of control

COC(=O)c1ccc(C)cc1C(=O)OC
T/C (dose: 50.0 mg/kg/injection, schedule: Q01DX009 (ip), vehicle: saline with Tween-80): 107 % of control | T/C [26]: 111 % of control | T/C [27]: 107 % of control

Cc1cccc(OC(F)(F)C(F)Cl)c1 (centres undefined)
T/C [26]: 94 % of control | T/C [8]: 93 % of control | T/C [27]: 92 % of control | T/C [10]: 93 % of control | T/C (dose: 400.0 mg/kg/injection, schedule: Q01DX009 (ip), vehicle: saline with Tween-80): 100 % of control | T/C [12]: 95 % of control

CC(C)(C)COC(=O)c1ccccc1
T/C [13]: 102 % of control | T/C [14]: 91 % of control | T/C [15]: 91 % of control

C[n+]1ccccc1Cl
T/C [16]: 115 % of control | T/C [1]: 108 % of control | T/C [2]: 110 % of control

CC(O)c1cccc(NC(=O)Nc2cccc(C(F)(F)F)c2)c1 (centres undefined)
T/C [20]: 104 % of control | T/C [23]: 100 % of control and 109 % of control | T/C [4]: 110 % of control and 111 % of control | T/C [7]: 99 % of control | T/C [21]: 98 % of control | T/C [24]: 107 % of control and 116 % of control | T/C [5]: 108 % of control | T/C [9]: 95 % of control | T/C [22]: 98 % of control | T/C [25]: 101 % of control and 89 % of control | T/C [6]: 112 % of control and 115 % of control | T/C [11]: 103 % of control

O=C1C(Br)=C(Br)C(=O)C1(Br)Br
T/C [8]: 87 % of control | T/C [10]: 96 % of control | T/C [12]: 94 % of control

COc1ccc(C(=O)C(C)CN2CCOCC2)cc1 (centres undefined)
T/C [17]: 102 % of control | T/C [18]: 105 % of control | T/C [19]: 102 % of control

O=C(Nc1ccc(Cl)cc1Cl)P(=O)(O)c1ccccc1
T/C [23]: 92 % of control | T/C [4]: 101 % of control | T/C [24]: 103 % of control | T/C [5]: 90 % of control | T/C [25]: 92 % of control

O=C1C=CC(=O)N1CCCN1C(=O)C=CC1=O
T/C (dose: 2.2 mg/kg/injection, schedule: Q01DX Z (ip), vehicle: methylcellulose (MC)): 94 % of control | T/C (dose: 3.3 mg/kg/injection, schedule: Q01DX Z (ip), vehicle: methylcellulose (MC)): 88 % of control | T/C (dose: 5.0 mg/kg/injection, schedule: Q01DX Z (ip), vehicle: methylcellulose (MC)): 96 % of control

Cc1ccc2nc(-c3ccc(F)cc3)cc(C(=O)O)c2c1
T/C (dose: 100.0 mg/kg/injection, schedule: Q04DX003 (ip), vehicle: saline): 92 % of control | T/C (dose: 200.0 mg/kg/injection, schedule: Q04DX003 (ip), vehicle: saline): 89 % of control | T/C (dose: 400.0 mg/kg/injection, schedule: Q04DX003 (ip), vehicle: saline): 95 % of control

c1ccc(C(c2ccccc2)(c2nccs2)n2ccnc2)cc1
T/C [7]: 95 % of control | T/C [9]: 98 % of control | T/C [11]: 104 % of control
